Assay results published in US20160115540A1, “PRODRUGS AND DRUGS” (Biogen MA Inc., priority 2013, published 2016).
Where a name gives a salt, the structure may show the parent alone.

System: kidney
Assay: Transcriptional profiling on Affymetrix GeneChips, single dose, naïve mice: kidney
Assay type: in vivo, C57BL/6 mice
Details: kidney
Protocol: Treated mice were sacrificed at 2, 7, or 12 hours. Tissues (liver, spleen, kidney, jejunum, cortex, hippocampus, striatum and whole blood) were collected and analyzed by transcriptional profiling on mouse Affymetrix GeneChips.
Tissues (liver, spleen, kidney, jejunum, cortex, hippocampus, striatum and whole blood) were collected and analyzed by transcriptional profiling on mouse Affymetrix GeneChips.
Animals were exposed to CO2 and whole blood collected via cardiac puncture. Two 100 μl aliquots of whole blood were collected in 1.5 mL microcentrifuge tubes and snap frozen in liquid nitrogen. Peripheral (liver, spleen, kidney and jejunum) and CNS brain (cerebellum, hippocampus, striatum and cortex) tissues were harvested and snap frozen in liquid nitrogen, with special care taken to collect tissues of similar size and from the same location. All samples were stored at −80° C. until RNA extraction was conducted.
For RNA preparation, frozen tissues were placed in 2 mL RNAse-free 96-well blocks with 1.5 mL QIAzol Lysis Reagent (QIAgen) and a 3.2 mm stainless steel bead (BioSpec Products, Bartlesville, Okla.). Tissues were disrupted for four cycles of 45 seconds in a Mini-Beadbeater (Biospec Products). RNA was extracted in chloroform and the aqueous phase was mixed with an equal volume of 70% ethanol. Extracted RNA was applied to RNeasy 96 plates and purified by the spin method according to the manufacturer's protocol (RNeasy 96 Universal Tissue Protocol, QIAgen, Hilden Germany).
Automated sample amplifications and biotin labelings were carried out using the NuGEN Ovation RNA Amplification system V2 (Cat #3100), Ovation WB reagent (Cat #1300) and Encore Biotin module (Cat #4200) (NuGEN Technologies, Inc, San Carlos, Calif.) according to manufacturer's recommendations using an Arrayplex automated liquid handler (Beckman Coulter, Indianapolis, Ind.). Two micrograms of biotin labeled sscDNA probe were hybridized to Affymetrix GeneChip Affymetrix HT_MG-430_PM plate arrays with modified conditions as described in Allaire et al. Washing and staining of the hybridized arrays were completed as described in the GeneChip Expression analysis technical manual for HT plate arrays using the Genechip® Array Station (Affymetrix, Santa Clara, Calif.) with modifications as described in Allaire et al. The processed GeneChip® plate arrays were scanned using GeneTitan scanner (Affymetrix, Santa Clara, Calif.).
Affymetrix scans were subject to quality control (QC) measures. These tests included a visual inspection of the distribution of raw signal intensities and an assessment of RNA degradation, relative log expression (RLE), and normalized unsealed standard error (NUSE). All sample scans that passed these QC metrics were included in the analysis.
All CEL files were subjected to GC-content-based Robust Multi-array Average (GCRMA) normalization (version 2.20.0) (Irizarry R A, et al. Nucleic Acids Res 2003; 31:e15; Li C, et al. Genome Biol 2001; 2:[…]0032). Expression levels were log (base 2) transformed.
All calculations and analyses were carried out using R (version 2.11.1) and Bioconductor computational tools (Gentleman R. Springer Science+Business Media 2005).

## COC(=O)/C=C/C(=O)O [MMF, monomethyl fumarate]
12 hr
  B4galt5 (probe set 1433617_PM_s_at) differential expression: −1.51
  C8a (probe set 1428012_PM_at) differential expression: −1.51
  Cbr1 (probe set 1460196_PM_at) differential expression: 2.10
  Cbr3 (1427912_PM_at) differential expression: 7.02
  Cldn1 (probe set 1437932_PM_a_at) differential expression: 1.57
  Dio3os (probe set 1435121_PM_at) differential expression: 1.60
  Dpys (probe set 1436291_PM_a_at) differential expression: 1.51
  Ep400 (probe set 1449610_PM_at) differential expression: −1.67
  Fga (probe set 1424279_PM_at) differential expression: 1.79
  Gbe1 (probe set 1420654_PM_a_at) differential expression: 1.51
  Gdf15 (1418949_PM_at) differential expression: 2.01
  Gpr19 (probe set 1421756_PM_a_at) differential expression: 1.50
  Gpr135 (probe set 1441944_PM_s_at) differential expression: 1.59
  Gpt (probe set 1426502_PM_s_at) differential expression: 1.51
  Gsta2 (probe set 1421040_PM_a_at) differential expression: 1.61
  Gstp1 (probe set 1449575_PM_a_at) differential expression: 1.54
  Kif20b (probe set 1439695_PM_a_at) differential expression: −2.85
  Klk1b21 (probe set 1451607_PM_at) differential expression: 1.57
  Maf (probe set 1437473_PM_at) differential expression: 1.53
  Mthfd2 (1419253_PM_at) differential expression: 1.65
  Nek6 (probe set 1423596_PM_at) differential expression: 1.69
  Nfia (probe set 1446742_PM_at) differential expression: −1.74
  Orc4 (probe set 1431172_PM_at) differential expression: 1.50
  Pigl (probe set 1440965_PM_at) differential expression: 1.52
  Pnkd (probe set 1418746_PM_at) differential expression: 1.51
  Rcor3 (probe set 1428343_PM_at) differential expression: −1.51
  Reep6 (probe set 1430128_PM_a_at) differential expression: 1.51
  Slc5a3 (probe set 1440227_PM_at) differential expression: −1.50
  Slc6a4 (probe set 1417150_PM_at) differential expression: 1.58
  Slc8a1 (probe set 1437675_PM_at) differential expression: −1.86
  Slc38a3 (probe set 1418706_PM_at) differential expression: 1.81
  Slc39a8 (probe set 1448482_PM_at) differential expression: −1.55
  Slc48a1 (probe set 1450410_PM_a_at) differential expression: 1.53
  Slco2a1 (probe set 1444242_PM_at) differential expression: 1.63
  Smarca2 (probe set 1452333_PM_at) differential expression: −1.60
  Tfrc (probe set 1422966_PM_a_at) differential expression: 1.51
  Tmie (probe set 1443964_PM_at) differential expression: 1.65
  Trim16 (probe set 1460629_PM_at) differential expression: 1.51
100MMF-vs-Veh, 12 h
  FC 1200003I10Rik /// 1200015M12Rik /// A130040M12Rik /// E430024C06Rik 1427932_PM_s_at: 1.54
  FC 1200016E24Rik (1452418_PM_at): 1.50
  FC 1300002K09Rik 1453234_PM_at: 1.88
  FC 1441333_PM_at (no gene symbol): −2.46
  FC 1441971_PM_at (no gene symbol): 1.51
  FC 1444920_PM_at (no gene symbol): −1.56
  FC 1447396_PM_at (no gene symbol): −1.52
  FC 1455722_PM_at (no gene symbol): −1.53
  FC 1458599_PM_at (no gene symbol): 1.57
  FC 1459091_PM_at (no gene symbol): 2.38
  FC 2010003K11Rik (1424626_PM_at): 1.65
  FC 2310043L19Rik (1440008_PM_at): 1.86
  FC 3110009E18Rik (1428023_PM_at): 1.58
  FC 4933427G17Rik 1431905_PM_s_at: 1.59
